# Data reported in ChEMBL document CHEMBL1150366, “Structural requirements of pyrido[2,3-d]pyrimidin-7-one as CDK4/D inhibitors: 2D autocorrelation, CoMFA and CoMSIA analyses” (Bioorg Med Chem, 2008).
# Test: Binding affinity to CDK4/D
row,log(10'6/IC50),SMILES
1,1.87,O=c1ccc2cnc(Nc3ccccc3)nc2n1CC1CCCCC1
2,3.03,O=c1ccc2cnc(Nc3ccccc3)nc2n1Cc1ccccc1
3,3.53,CC(C)Cn1c(=O)ccc2cnc(Nc3ccccc3)nc21
4,2.11,CCOCCn1c(=O)ccc2cnc(Nc3ccccc3)nc21
5,2.85,CCn1c(=O)ccc2cnc(Nc3cccc(F)c3)nc21
6,1.51,COC(=O)Cn1c(=O)ccc2cnc(Nc3ccccc3)nc21
7,3.21,CCn1c(=O)ccc2cnc(Nc3ccccc3)nc21
8,6.15,CCN(CC)CCOc1ccc(Nc2ncc3ccc(=O)n(C4CCCC4)c3n2)cc1
9,2.83,CCCCn1c(=O)ccc2cnc(Nc3ccccc3)nc21
10,1.4,CCn1c(=O)ccc2cnc(NCc3ccccc3)nc21
11,2.78,CN1CCN(c2ccc(Nc3ncc4ccc(=O)n(CC(O)CO)c4n3)cc2)CC1 (centres undefined)
12,2.68,CN1CCN(c2ccc(Nc3ncc4ccc(=O)n(CCOCc5ccccc5)c4n3)cc2)CC1
13,2.3,O=c1ccc2cnc(Nc3ccccc3)nc2n1CC1CO1 (centres undefined)
14,3.76,CN1CCN(c2ccc(Nc3ncc4ccc(=O)n(-c5ccccc5)c4n3)cc2)CC1
15,3.52,CCn1c(=O)ccc2cnc(Nc3ccc(N4CCOCC4)cc3)nc21
16,3.26,CCCn1c(=O)ccc2cnc(Nc3ccccc3)nc21
17,4.49,CC(C)n1c(=O)ccc2cnc(Nc3ccc(N4CCN(C)CC4)cc3)nc21
18,2.74,CCn1c(=O)ccc2cnc(Nc3ccc(O)c(OC)c3)nc21
19,5.4,CN1CCN(c2ccc(Nc3ncc4ccc(=O)n(C5CCCCC5)c4n3)cc2)CC1
20,3.68,O=c1ccc2cnc(Nc3ccccc3)nc2n1C1CCCC1
21,1.4,CCn1c(=O)ccc2cnc(Nc3cccc(OC)c3)nc21
22,5.4,CCN(CC)CCOc1ccc(Nc2ncc3ccc(=O)n(C4CCCCCC4)c3n2)cc1
23,2.26,Cn1c(=O)ccc2cnc(Nc3ccccc3)nc21
24,3.8,CC(C)CCn1c(=O)ccc2cnc(Nc3ccccc3)nc21
25,2.78,O=c1ccc2cnc(Nc3ccccc3)nc2n1-c1ccccc1
26,5.22,CN1CCN(c2ccc(Nc3ncc4ccc(=O)n([C@H]5C[C@H]6CC[C@H]5C6)c4n3)cc2)CC1 (relative stereo)
27,3.72,CCC(C)n1c(=O)ccc2cnc(Nc3ccccc3)nc21 (centres undefined)

row,log(10'6/IC50),SMILES
1,2.36,CCn1c(=O)ccc2cnc(NC(C)C)nc21
2,2.63,CCn1c(=O)ccc2cnc(Nc3ccc(OCCOC)cc3)nc21
3,2.39,CCn1c(=O)ccc2cnc(Nc3ccc(OC)c(OC)c3)nc21
4,3.8,CCN(CC)CCOc1ccc(Nc2ncc3ccc(=O)n(CC)c3n2)cc1
5,2.56,CCn1c(=O)ccc2cnc(Nc3ccc(-n4cccc4)cc3)nc21
6,4.42,O=c1ccc2cnc(Nc3ccccc3)nc2n1[C@H]1C[C@H]2CC[C@H]1C2 (relative stereo)
7,4.89,CC(C)CCn1c(=O)ccc2cnc(Nc3ccc(N4CCN(C)CC4)cc3)nc21
8,4.33,O=c1ccc2cnc(Nc3ccccc3)nc2n1C1CCCCC1
9,2.54,COCCn1c(=O)ccc2cnc(Nc3ccccc3)nc21
10,3.23,CCn1c(=O)ccc2cnc(Nc3ccc(O)cc3)nc21
11,3.22,CCn1c(=O)ccc2cnc(Nc3ccc(OC)cc3)nc21
12,3.74,O=c1ccc2cnc(Nc3ccccc3)nc2n1C1CCCCCC1
13,3.84,CC(C)n1c(=O)ccc2cnc(Nc3ccccc3)nc21
14,4.07,CCn1c(=O)ccc2cnc(Nc3ccc(N4CCN(C)CC4)cc3)nc21
15,2.91,CCn1c(=O)ccc2cnc(Nc3ccc(F)cc3)nc21
16,1.4,CCn1c(=O)ccc2cnc(N(C)c3ccccc3)nc21
17,4.96,CCN(CC)CCOc1ccc(Nc2ncc3ccc(=O)n(C4CCCCC4)c3n2)cc1
18,2.28,CCn1c(=O)ccc2cnc(NC(C)(C)C)nc21
19,3.85,CN1CCN(c2ccc(Nc3ncc4ccc(=O)n(C5CC5)c4n3)cc2)CC1
20,2.38,COCn1c(=O)ccc2cnc(Nc3ccccc3)nc21
21,2.11,CCn1c(=O)ccc2cnc(Nc3cccc(OC(F)(F)C(F)F)c3)nc21
22,4.35,CCN(CC)CCOc1ccc(Nc2ncc3ccc(=O)n(C(C)C)c3n2)cc1
23,3.35,CCN(CC)CCOc1ccc(Nc2ncc3ccc(=O)n([C@H]4C[C@H]5CC[C@H]4C5)c3n2)cc1 (relative stereo)
24,5.05,CN1CCN(c2ccc(Nc3ncc4ccc(=O)n(C5CCCC5)c4n3)cc2)CC1
25,1.92,CCNc1ncc2ccc(=O)n(CC)c2n1
26,2.48,CCn1c(=O)ccc2cnc(NC3CCCCC3)nc21
27,2.93,CCn1c(=O)ccc2cnc(Nc3ccncc3)nc21
